Data on 22 molecules can be found in patent publication US20050043381A1, “Aminopyrazole compounds” (AGOURON PHARMACEUTICALS, INC., priority 2003, published 2005).

One assay concerns CA-46 (lymphoma) cells. In words: Whole cell checkpoint abrogation assay (CHK1 Mitotic Index ELISA). The class given is cell-based. To be noted: for EC50: concentration causing 50% abrogation of the checkpoint, camptothecin + Nocodazole. As to the method: To examine the in vitro effects of CHK1 inhibitory compounds, an ELISA assay can be designed to monitor the abrogation of DNA damage-induced checkpoint control. The assay can be based on the trapping and detection of mitotic cells following DNA damage-induced arrest.
CA-46 (lymphoma) cells can be treated with a DNA damaging agent, such as camptothecin (Sigma), at 50 nM for 8 hours to induce DNA damage. The control compound or CHK1 inhibitor can be then added at increasing concentrations with Nocodazole (Sigma) at 0.1 μg/ml and plates can be incubated for 16 hours. Control cells, where only CHK1 inhibitors can be added, can be prepared as well to assure that the inhibitors alone have no effect on the cell cycle. The cells can be then harvested, washed with PBS, and crude acid extraction can be performed. Pellets can be resuspended in 80 μl of Acid Extraction Buffer (10 mM Hepes pH 7.9, 1.5 mM MgCl2, 10 mM KCl, 0.5 mM DTT, 1.5 mM PMSF, 0.4N sulfuric acid), vortexed briefly, and incubated for 30 minutes on ice. Samples can be then centrifuged and 75 μl of the supernatant can be transferred to a 96 well flat-bottom plate (VWR 3596). Next 15 μl Neutralizing Cocktail (# of samples×(10 μl 10N NaOH+5 μl 1M Tris Base) can be added to each well, and after mixing, 5 μl of this can be transferred to another 96 well plate with 100 μl 50 mM Tris base (pH 9.6) in each well. Samples can be dried overnight. The wells can be then washed with 200 μl ELISA wash buffer (PBS with 20 mM Tris pH 7.5, 0.05% Tween 20) 5 times and blocked with 200 μl blocking buffer (PBS with 20 mM Tris pH 7.5, 0.05% Tween 20, 3.5% Dry milk, 1.5% BSA. pH to 7.5 after preparation) for 1 hour at room temperature. Following wash and block, anti-phospho Histone H3 antibodies (Upstate USA, Inc., rabbit polyclonal) can be added at 0.5 μg/ml in block (100 μl per well) and incubated for 2 hours at room temperature. Wells can be washed again to remove unbound primary antibody and 100 μl alkaline phosphatase conjugated secondary antibodies at 0.3 mg/ml (Pierce, goat anti-rabbit IgG ([…]+L)) in block can be added for 1 hour at room temp. Wells can be washed 5 times to remove unbound secondary antibody, and washed again 3 times with PBS alone to remove detergents. Then 100 μl alkaline phosphatase substrate (Pierce 1-Step pNPP) can be added to wells. Plates can be protected from light and incubated at room temp for 1 hour. The OD can be read on Molecular Devices Vmax Kinetic Microplate Reader at 405 nm. The ratio of the OD (optical density) of a compound treated sample to the Nocodazole only treated sample (about 100% mitotic or abrogation) can be expressed in a percentage, and quantifies the percent abrogation of the checkpoint. The concentration at which a compound causes 50% abrogation of the checkpoint can be called the EC50. The raw OD values can be graphed in Excel, and an EC50 value can be generated using Kaleidograph software. Strong signal results from Nocodazole only treated cells, and equals 100% mitosis in this assay. Camptothecin+Nocodazole treated control samples have low signal, signifying no mitosis and therefore, no checkpoint abrogation. When potent CHK1 inhibitors are added to Camptothecin treated cells with Nocodazole, a high signal can be generated (generally in a dose dependent manner), due to the checkpoint abrogation activity caused by the combination treatment.
For orientation: In an ELISA, binding on a coated surface is turned into a signal by an enzyme label.

In assay [1] the target is T1, full-length human CHK1 (FL-CHK1) (Homo sapiens, UniProt O14757).
T1 construct: C-terminally His-tagged full-length human CHK1 (FL-CHK1); 6xHis (C); made in house
T1 sequence (O14757 1-476): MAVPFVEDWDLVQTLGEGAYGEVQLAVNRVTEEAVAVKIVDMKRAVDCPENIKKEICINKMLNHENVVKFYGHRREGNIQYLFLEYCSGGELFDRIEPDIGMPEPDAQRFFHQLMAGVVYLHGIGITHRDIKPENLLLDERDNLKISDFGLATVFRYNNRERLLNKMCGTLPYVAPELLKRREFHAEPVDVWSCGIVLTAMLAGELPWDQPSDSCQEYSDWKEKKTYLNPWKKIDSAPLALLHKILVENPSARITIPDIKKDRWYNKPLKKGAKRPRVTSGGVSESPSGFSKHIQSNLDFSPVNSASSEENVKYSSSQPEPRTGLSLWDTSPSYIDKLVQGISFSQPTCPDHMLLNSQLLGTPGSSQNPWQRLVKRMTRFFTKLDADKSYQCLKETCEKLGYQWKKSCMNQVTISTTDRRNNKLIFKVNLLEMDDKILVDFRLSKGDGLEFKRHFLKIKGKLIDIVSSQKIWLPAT
As to the kind of experiment: FL-CHK1 assay (coupled spectrophotometric, Syntide-2). The class given is biochemical. To be noted: FL-CHK1, 0.15 mM ATP. The source says:
C-terminally His-tagged full-length human CHK1 (FL-CHK1) was expressed using the baculovirus/insect cell system. It contains 6 histidine residues (6 x His-tag) at the C-terminus of the 476 amino acid human CHK1. The protein was purified by conventional chromatographic techniques.
The production of ADP from ATP that accompanies phosphoryl transfer to the synthetic substrate peptide Syntide-2 (PLARTLSVAGLPGKK) was coupled to oxidation of NADH using phosphoenolpyruvate (PEP) through the actions of pyruvate kinase (PK) and lactic dehydrogenase (LDH). The oxidation of NADH was monitored by following the decrease of absorbance at 340 nm (ε340=6.22 cm^−1 mM^−1) using a HP8452 spectrophotometer. Typical reaction solutions contained: […] PEP; 0.15 mM NADH; 28 units of LDH/mL; 16 units of PK/mL; 3 mM DTT; 0.125 mM Syntide-2; 0.15 mM ATP; 25 mM MgCl2 in 50 mM TRIS, pH 7.5; and 400 mM NaCl. Assays were initiated with 10 nM of FL-CHK1. Ki values were determined by measuring initial enzyme activity in the presence of varying concentrations of test compounds. The data were analyzed using Enzyme Kinetic and Kaleidagraph software. […]

On to `Oc1ccc(-c2ccc(-c3cc(Nc4cncs4)[nH]n3)cc2)c(O)c1` [Example 20, 4′-[5-(1,3-thiazol-5-ylamino)-1H-pyrazol-3-yl]-1,1′-biphenyl-2,4-diol], for which, in the assay on CA-46 (lymphoma) cells (@ 0.5 μM), the “percent abrogation of the checkpoint” value worked out at 10% @ 0.5 μM.

Regarding `Oc1ccc(-c2ccc(-c3cc(Nc4ncccn4)n[nH]3)cc2)c(O)c1` [Example 11, N-[3-(2′,4′-dihydoxy-1,1′-biphenyl-4-yl)-1H-pyrazol-5-yl]pyrimidin-2-amine], the Ki in assay [1] is 0.001 to 0.01 µM.

`CCC(C)NCc1ccc(Nc2cc(-c3ccc(-c4ccc(O)cc4O)cc3)[nH]n2)cc1` (centres unmarked) [Example 22]: in the assay on CA-46 (lymphoma) cells, the concentration for a half-maximal effect (EC50) amounted to 0.06 µM.

As to `Cc1cc(O)cc(O)c1-c1ccc(-c2cc(Nc3ccc(CNC(C)C)cc3)n[nH]2)cc1` [Example 7], the EC50 in the assay on CA-46 (lymphoma) cells was found to be 0.38 µM.

As to `Oc1ccc(-c2ccc(-c3cc(Nc4cccnc4)[nH]n3)cc2)c(O)c1` [Example 18, N-[5-(2′,4′-Dihydroxy-1,1′-biphenyl-4-yl)-1H-pyrazol-3-yl]pyridin-3-amine], the EC50 with CA-46 (lymphoma) cells is 0.54 µM.

For `OCc1cc(Nc2cc(-c3ccc(-c4ccc(O)cc4O)cc3)[nH]n2)ccn1` [Example 13, 4′-[5-(2-Hydroxymethyl-pyridin-4-ylamino)-2H-pyrazol-3-yl]-biphenyl-2,4-diol acetate], the “percent abrogation of the checkpoint” value in the assay with CA-46 (lymphoma) cells (@ 0.5 μM) worked out at 0% @ 0.5 μM.

Regarding `OCc1ccc(Nc2cc(-c3ccc(-c4ccc(O)cc4O)cc3)[nH]n2)cn1` [Example 12, 4′-[5-(6-Hydroxymethyl-pyridin-3-ylamino)-2H-pyrazol-3-yl]-biphenyl-2,4-diol], the “percent abrogation of the checkpoint” value in the assay with CA-46 (lymphoma) cells (@ 0.5 μM) turned out to be 5% @ 0.5 μM.

Consider `Oc1ccc(-c2ccc(-c3cc(Nc4ccc(CNC5CC5)cc4)n[nH]3)cc2)c(O)c1` [Example 4, 4′-[5-(4-Cyclopropylaminomethyl-phenylamino)-2H-pyrazol-3-yl]-biphenyl-2,4-diol acetate], for which the EC50 with CA-46 (lymphoma) cells stood at 0.06 µM.

For the molecule `Oc1ccc(-c2ccc(-c3cc(Nc4ccc(CNCC5CC5)cc4)n[nH]3)cc2)c(O)c1` [Example 10, 4′-[5-(4-Cyclopropylmethylaminomethyl-phenylamino)-2H-pyrazol-3-yl-]-biphenyl-2,4-diol acetate], in the assay on CA-46 (lymphoma) cells, the EC50 worked out at 0.075 µM.

For `Oc1ccc(-c2ccc(-c3cc(Nc4ccccc4)n[nH]3)cc2)c(O)c1` [Example 21, 4′-(3-anilino-1H-pyrazol-5-yl)-1,1′-biphenyl-2,4-diol], the EC50 in the assay on CA-46 (lymphoma) cells is 0.5 µM.

Take `N#Cc1cccc(Nc2cc(-c3ccc(-c4ccc(O)cc4O)cc3)n[nH]2)c1` [Example 1, 3-{[3-(2′,4′-Dihydroxy-1,1′-biphenyl-4-yl)-1H-pyrazol-5-yl]amino}benzonitrile]: the “percent abrogation of the checkpoint” value in the assay with CA-46 (lymphoma) cells (@ 0.5 μM) worked out at 7% @ 0.5 μM. In assay [1], this molecule returned an inhibition constant (Ki) of 0.001 to 0.01 µM.

`Oc1ccc(-c2ccc(-c3cc(Nc4ccncc4)[nH]n3)cc2)c(O)c1` [Example 19, 4′-[5-(pyridin-4-ylamino)-1H-pyrazol-3-yl]-1,1′-biphenyl-2,4-diol]: the “percent abrogation of the checkpoint” value in the assay with CA-46 (lymphoma) cells (@ 0.5 μM) is 14% @ 0.5 μM. The molecule also yielded a Ki in assay [1] of 0.001 to 0.01 µM.

`CCNCc1ccc(Nc2cc(-c3ccc(-c4ccc(O)cc4O)cc3)[nH]n2)cn1` [Example 26, -[5-({6-[(ethylamino)methyl]pyridin-3-yl}amino)-1H-pyrazol-3-yl]-1,1′-biphenyl-2,4-diol]: in the assay on CA-46 (lymphoma) cells, the concentration for a half-maximal effect (EC50) was determined as 0.56 µM.

Regarding `N#Cc1ccc(Nc2cc(-c3ccc(-c4ccc(O)cc4O)cc3)n[nH]2)cc1` [Example 2, 4-{[3-(2′,4′-Dihydroxy-1,1′-biphenyl-4-yl)-1H-pyrazol-5-yl]amino}benzonitrile], the “percent abrogation of the checkpoint” value in the assay on CA-46 (lymphoma) cells (@ 1 μM) stood at 1% @ 1 μM. Also, the Ki in assay [1] lay within 0.001 to 0.01 µM.

On to `CC(C)NCc1ccc(Nc2cc(-c3ccc(-c4ccc(O)cc4O)cc3)n[nH]2)cn1` [Example 25, 4′-[5-({6-[(isopropylamino)methyl]pyridin-3-yl}amino)-1H-pyrazol-3-yl]-1,1′-biphenyl-2,4-diol], for which, in the assay with CA-46 (lymphoma) cells, the concentration for a half-maximal effect (EC50) came to 0.56 µM.

On to `Oc1ccc(-c2ccc(-c3cc(Nc4ccccn4)[nH]n3)cc2)c(O)c1` [Example 17, N-[5-(2′,4′-Dihydroxy-1,1′-biphenyl-4-yl)-1H-pyrazol-3-yl]pyridin-2-amine], for which the “percent abrogation of the checkpoint” value with CA-46 (lymphoma) cells (@ 0.5 μM) was 16% @ 0.5 μM.

In the case of `Oc1ccc(-c2ccc(-c3cc(Nc4ccc(CNC5CCCC5)nc4)n[nH]3)cc2)c(O)c1` [Example 14, 4′-[5-({6-[(cyclopentylamino)methyl]pyridin-3-yl}amino)-1H-pyrazol-3-yl]-1,1′-biphenyl-2,4-diol], the concentration for a half-maximal effect (EC50) with CA-46 (lymphoma) cells worked out at 0.16 µM. The inhibition constant (Ki) in assay [1] was 0.001 to 0.01 µM.

Turning to `Oc1ccc(-c2ccc(-c3cc(Nc4cccc(CNC5CC5)c4)n[nH]3)cc2)c(O)c1` [Example 3, 4′-[5-(3-Cyclopropylaminomethyl-phenylamino)-2H-pyrazol-3-yl]-biphenyl-2,4-diol acetate], the EC50 with CA-46 (lymphoma) cells came to 0.9 µM.

Consider `Oc1cc(O)c(-c2ccc(-c3cc(Nc4ccc(CNC5CC5)cc4)n[nH]3)cc2)c(Cl)c1` [Example 8, 4′-[5-(4-Cyclopropylaminomethyl-phenylamino)-2H-pyrazol-3-yl]-biphenyl-6-chloro-2,4-diol acetate], for which the half-maximal effective concentration (EC50) in the assay with CA-46 (lymphoma) cells worked out at 0.15 µM.

For the molecule `Oc1ccc(-c2ccc(-c3cc(Nc4ccc(CNCC5CC5)nc4)[nH]n3)cc2)c(O)c1` [Example 23, 4′-{5-[(6-{[(cyclopropylmethyl)amino]methyl}pyridin-3-yl)amino]-1H-pyrazol-3-yl}-1,1′-biphenyl-2,4-diol], the EC50 with CA-46 (lymphoma) cells was 0.165 µM. The molecule also displayed an inhibition constant (Ki) in assay [1] of 0.001 to 0.01 µM.

On to `CNC(=S)c1ccc(Nc2cc(-c3ccc(-c4ccc(O)cc4O)cc3)n[nH]2)cn1` [Example 16, 5-[5-(2′,4′-Dihydroxy-biphenyl-4-yl)-2H-Pyrazol-3-ylamino]-pyridine-2-carbothioic acid methylamide], for which the “percent abrogation of the checkpoint” value in the assay with CA-46 (lymphoma) cells (@ 0.5 μM) amounted to 10% @ 0.5 μM. Besides, in assay [1], the inhibition constant Ki lay within 0.001 to 0.01 µM.

Regarding `Oc1cc(O)c(-c2ccc(-c3cc(Nc4ccc(CNC5CC5)cc4)n[nH]3)cc2)c(F)c1` [Example 9, 4′-[5-({4-[(cyclopropylamino)methyl]phenyl}amino)-1H-pyrazol-3-yl]-6-fluoro-1,1′-biphenyl-2,4-diol], in the assay with CA-46 (lymphoma) cells, the EC50 worked out at 0.088 µM. This molecule also registered a Ki in assay [1] of 0.001 to 0.01 µM.

By Ki is commonly meant the equilibrium dissociation constant of an inhibitor or competing ligand from its target. A low value points to tighter binding. As usually defined, the EC50 is the concentration at which the effect is half-maximal.
